Consider five molecules from DBAASP.

≈ marks a conversion by molar mass, not a printed value. Bounds are passed on as bounds.

Common to all, as to experiment: ≥ marks a high value that may be exact or a test limit, other limits are often not marked, values filed in µg/mL are converted to µM
Experiment [1] concerns Escherichia coli IH3080.
Experiment [2] deals with Escherichia coli SC9253.
Experiment [3] concerns Micrococcus luteus ML36.
The subject of experiment [4] is Escherichia coli SC9252.
Experiment [5] concerns Escherichia coli SC9251.
Experiment [6] concerns Escherichia coli SM101.
Experiment [7] concerns Candida glabrata 090902.
Experiment [8] has as its system Enterococcus faecalis 981.
Experiment [9] has as its system Nocardia asteroides.
The test system of experiment [10] is Staphylococcus aureus ATCC 25923.
Experiment [11] deals with Pseudomonas aeruginosa CGMCC 1.50.
Experiment [12] deals with Saccharomyces cerevisiae.
Experiment [13] has as its system Staphylococcus aureus.
For experiment [14], the system named is Serratia sp.
Experiment [15] deals with Salmonella typhimurium.
The test system of experiment [16] is Streptococcus mutans.
In experiment [17] the test system is Cryptococcus neoformans.
Experiment [18] deals with Candida albicans.
In experiment [19] the test system is Bacillus subtilis.
The subject of experiment [20] is Pseudomonas putida.
Experiment [21] relates to Escherichia coli.
In experiment [22] the test system is Candida albicans ATCC 90028.
Experiment [23] relates to Klebsiella pneumoniae.
Experiment [24] concerns Candida albicans ATCC 2002.
Experiment [25] has as its system Staphylococcus aureus 10.
Experiment [26] deals with Pseudomonas aeruginosa ATCC 27853.
In experiment [27] the test system is Enterobacter cloacae ATCC 13047.
Experiment [28] concerns Enterococcus faecalis ATCC 29212.
Experiment [29] concerns Shigella dysenteriae.
The test system of experiment [30] is Candida parapsilosis ATCC 22019.
In experiment [31] the test system is Klebsiella pneumoniae ATCC 700603.
Experiment [32] relates to Staphylococcus aureus 37.
Experiment [33] deals with Pseudomonas aeruginosa CMCCB 1010.
Experiment [34] deals with Micrococcus luteus.
For experiment [35], the system named is Escherichia coli ATCC 25922.
Experiment [36] deals with Pseudomonas aeruginosa ATCC 15692.

The term MIC denotes the least concentration at which growth counts as inhibited. Regarding `NCCCC[C@H](NC(=O)[C@H](Cc1ccccc1)NC(=O)[C@H](Cc1ccccc1)NC(=O)[C@H](CCCCN)NC(=O)[C@H](Cc1ccccc1)NC(=O)[C@H](Cc1ccccc1)NC(=O)[C@@H](N)CCCCN)C(=O)N[C@@H](Cc1ccccc1)C(=O)N[C@@H](Cc1ccccc1)C(=O)O` [KFFKFFKFF], the MIC in experiment [1] was no less than 77.8 µM; in experiment [2], 23.3 µM (≈ 30 µg/mL); in [3], 7.78 µM (≈ 10 µg/mL); in experiment [4] it was 23.3 µM (≈ 30 µg/mL); in experiment [5], 23.3 µM (≈ 30 µg/mL); in [6], 23.3 µM (≈ 30 µg/mL).

On to `CC[C@H](C)[C@H](NC(=O)[C@H](CC(C)C)NC(=O)CNC(=O)[C@@H](NC(=O)[C@@H](NC(=O)[C@@H](N)Cc1ccccc1)[C@@H](C)CC)[C@@H](C)O)C(=O)NCC(=O)NCC(=O)N[C@@H](CC(C)C)C(=O)N[C@@H](CCSC)C(=O)N[C@@H](CCCCN)C(=O)N[C@@H](C)C(=O)N[C@@H](CC(C)C)C(N)=O` [FITGLIGGLMKAL], for which the MIC is no less than 400 µM in experiment [7]; no less than 200 µM in [8]; no less than 100 µM in experiment [9]; 100 µM (≈ 133 µg/mL) in experiment [10]; no less than 400 µM in [11].

In the case of `CC(C)C[C@H](NC(=O)[C@H](CCCN=C(N)N)NC(=O)[C@H](C)NC(=O)[C@H](CCCN=C(N)N)NC(=O)[C@H](CC(C)C)NC(=O)[C@H](CO)NC(=O)[C@H](CCC(=O)O)NC(=O)CNC(=O)[C@H](CCCCN)NC(=O)[C@H](CC(C)C)NC(=O)[C@H](CCCN=C(N)N)NC(=O)[C@H](CO)NC(=O)[C@@H](NC(=O)[C@H](CCCCN)NC(=O)[C@@H](NC(=O)[C@@H](NC(=O)CN)C(C)C)C(C)C)C(C)C)C(=O)O` [GVVKVSRLKGESLRARL], the MIC was 3.21 µM (≈ 6 µg/mL) in experiment [12]; 10.7 µM (≈ 20 µg/mL) in experiment [13]; 10.7 µM (≈ 20 µg/mL) in experiment [14]; 5.35 µM (≈ 10 µg/mL) in experiment [15]; 3.21 µM (≈ 6 µg/mL) in [16]; 3.21 µM (≈ 6 µg/mL) in experiment [17]. The MIC in experiment [18] amounted to 5.35 µM (≈ 10 µg/mL); in experiment [19], 3.21 µM (≈ 6 µg/mL); in experiment [20], 5.35 µM (≈ 10 µg/mL); in experiment [21] it was 5.35 µM (≈ 10 µg/mL).

As to `CC[C@H](C)[C@H](N)C(=O)N[C@@H](CC(N)=O)C(=O)N[C@@H](CC(C)C)C(=O)N[C@@H](CCCCN)C(=O)N[C@@H](C)C(=O)N[C@H](C(=O)N[C@H](C(=O)N[C@@H](C)C(=O)N[C@@H](CC(C)C)C(=O)N[C@@H](C)C(=O)N[C@@H](CCCCN)C(=O)N[C@@H](CCCCN)C(=O)N[C@@H](CC(C)C)C(=O)N[C@@H](CC(C)C)C(=O)O)[C@@H](C)O)[C@@H](C)CC` [INLKAITALAKKLL], the MIC in [22] was found to be 6.62 µM (≈ 10 µg/mL); in experiment [23], 13.2 µM (≈ 20 µg/mL); in [24] it was 3.31 µM (≈ 5 µg/mL); in experiment [25], 1.66 µM (≈ 2.5 µg/mL); in experiment [26], 53 µM (≈ 80 µg/mL); in [27] it was 3.31 µM (≈ 5 µg/mL). For the same molecule, the MIC in experiment [28] worked out at 3.31 µM (≈ 5 µg/mL); in experiment [29], 6.62 µM (≈ 10 µg/mL); in [10], 6.62 µM (≈ 10 µg/mL); in [30] it was 1.66 µM (≈ 2.5 µg/mL); in experiment [31], 26.5 µM (≈ 40 µg/mL); in [32], 3.31 µM (≈ 5 µg/mL). The MIC in [33] worked out at 6.62 µM (≈ 10 µg/mL).

With `CC[C@H](C)[C@H](NC(=O)[C@H](C)NC(=O)[C@H](CC(=O)O)NC(=O)[C@H](CC(C)C)NC(=O)CNC(=O)CNC(=O)[C@H](CCCCN)NC(=O)[C@H](C)NC(=O)[C@H](Cc1ccccc1)NC(=O)[C@H](CCCCN)NC(=O)[C@H](CCCCN)NC(=O)[C@H](CC(C)C)NC(=O)CNC(=O)CNC(=O)[C@H](CC(C)C)NC(=O)[C@@H](NC(=O)[C@@H](NC(=O)[C@H](CO)NC(=O)[C@H](Cc1c[nH]c2ccccc12)NC(=O)[C@@H](NC(=O)CN)C(C)C)[C@@H](C)O)[C@@H](C)CC)C(=O)N[C@H](C(=O)N[C@@H](CC(N)=O)C(=O)N1CCC[C@H]1C(=O)N[C@@H](CCCCN)C(=O)O)C(C)C` [GVWSTILGGLKKFAKGGLDAIVNPK], the MIC in experiment [12] turned out to be 8 µM (≈ 20.6 µg/mL); in experiment [34], 0.5 µM (≈ 1.29 µg/mL); in experiment [10], 11.3 µM (≈ 29.1 µg/mL); in [35], 2.83 µM (≈ 7.27 µg/mL); in experiment [36], 16 µM (≈ 41.1 µg/mL).
